Test results: publication PMC10838953

Legend:
Assay in all cases: biochemical
Settings in all cases: read-out: %Ctrl @ 2000nM
CDK7 = CDK7 (Homo sapiens, UniProt P50613)
ZAK = ZAK (Homo sapiens, UniProt Q9NYL2)
[1] = target: ABL1(H396P)-nonphosphorylated (Homo sapiens, UniProt P00519, H396P)
CAMK1D = CAMK1D (Homo sapiens, UniProt Q8IU85)
GRK4 = GRK4 (Homo sapiens, UniProt P32298)
PKN2 = PKN2 (Homo sapiens, UniProt Q16513)
CLK2 = CLK2 (Homo sapiens, UniProt P49760)
PDPK1 = PDPK1 (Homo sapiens, UniProt O15530)
CSF1R = CSF1R (Homo sapiens, UniProt P07333)
KIT(V559D) = KIT(V559D) (Homo sapiens, UniProt P10721, V559D)
WNK2 = WNK2 (Homo sapiens, UniProt Q9Y3S1)
[2] = target: ABL1(T315I)-nonphosphorylated (Homo sapiens, UniProt P00519, T315I)
[3] = target: JAK2(JH1domain-catalytic) (Homo sapiens, UniProt O60674)
Chain of JAK2(JH1domain-catalytic) (O60674 840-1132 limits assumed): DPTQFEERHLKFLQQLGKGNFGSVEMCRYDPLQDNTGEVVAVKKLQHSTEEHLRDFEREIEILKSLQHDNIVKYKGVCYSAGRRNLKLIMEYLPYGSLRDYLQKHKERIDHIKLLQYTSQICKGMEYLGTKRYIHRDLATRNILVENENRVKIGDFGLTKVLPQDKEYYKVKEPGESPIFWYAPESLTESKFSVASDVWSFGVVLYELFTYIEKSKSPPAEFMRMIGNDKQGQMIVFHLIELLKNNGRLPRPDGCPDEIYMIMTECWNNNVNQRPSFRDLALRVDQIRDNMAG

FGFR1 = FGFR1 (Homo sapiens, UniProt P11362)
EGFR(L747-T751del,Sins) = EGFR(L747-T751del,Sins) (Homo sapiens, UniProt P00533, DEL747-750/T751S)
PLK3 = PLK3 (Homo sapiens, UniProt Q9H4B4)
FGR = FGR (Homo sapiens, UniProt P09769)
MAPKAPK2 = MAPKAPK2 (Homo sapiens, UniProt P49137)
TBK1 = TBK1 (Homo sapiens, UniProt Q9UHD2)
PLK4 = PLK4 (Homo sapiens, UniProt O00444)
ACVR2A = ACVR2A (Homo sapiens, UniProt P27037)
RIOK3 = RIOK3 (Homo sapiens, UniProt O14730)
PRP4 = PRP4 (Homo sapiens, UniProt Q13523)
Chain of PRP4 (Q13523 whole entry): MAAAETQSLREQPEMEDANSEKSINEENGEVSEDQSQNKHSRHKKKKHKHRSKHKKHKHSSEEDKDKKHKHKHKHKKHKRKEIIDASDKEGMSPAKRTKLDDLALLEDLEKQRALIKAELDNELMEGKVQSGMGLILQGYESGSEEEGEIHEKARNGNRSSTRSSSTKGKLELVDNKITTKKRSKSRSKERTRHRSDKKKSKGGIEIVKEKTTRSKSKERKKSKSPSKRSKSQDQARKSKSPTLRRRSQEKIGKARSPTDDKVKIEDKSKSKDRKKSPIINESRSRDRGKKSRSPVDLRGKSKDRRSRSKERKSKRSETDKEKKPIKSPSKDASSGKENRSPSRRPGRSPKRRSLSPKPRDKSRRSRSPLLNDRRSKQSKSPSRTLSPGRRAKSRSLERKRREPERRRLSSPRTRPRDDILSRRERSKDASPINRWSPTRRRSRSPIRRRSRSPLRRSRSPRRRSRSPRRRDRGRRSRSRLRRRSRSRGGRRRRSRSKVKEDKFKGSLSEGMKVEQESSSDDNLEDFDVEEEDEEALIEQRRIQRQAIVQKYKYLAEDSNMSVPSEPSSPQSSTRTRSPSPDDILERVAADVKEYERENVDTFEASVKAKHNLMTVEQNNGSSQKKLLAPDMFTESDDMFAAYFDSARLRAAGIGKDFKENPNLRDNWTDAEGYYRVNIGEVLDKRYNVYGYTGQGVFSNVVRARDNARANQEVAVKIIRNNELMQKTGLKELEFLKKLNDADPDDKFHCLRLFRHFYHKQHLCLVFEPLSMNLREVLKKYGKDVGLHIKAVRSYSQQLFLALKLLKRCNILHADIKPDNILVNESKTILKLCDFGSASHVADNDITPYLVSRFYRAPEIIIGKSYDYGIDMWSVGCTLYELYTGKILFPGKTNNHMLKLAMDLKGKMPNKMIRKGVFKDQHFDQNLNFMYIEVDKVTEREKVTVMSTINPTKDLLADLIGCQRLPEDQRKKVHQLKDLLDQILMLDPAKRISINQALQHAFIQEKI

CSF1R-autoinhibited = CSF1R-autoinhibited (Homo sapiens, UniProt P07333)
MAK = MAK (Homo sapiens, UniProt P20794)
IKK-alpha = IKK-alpha (Homo sapiens, UniProt O15111)
CDC2L5 = CDC2L5 (Homo sapiens, UniProt Q14004)
Chain of CDC2L5 (Q14004 whole entry): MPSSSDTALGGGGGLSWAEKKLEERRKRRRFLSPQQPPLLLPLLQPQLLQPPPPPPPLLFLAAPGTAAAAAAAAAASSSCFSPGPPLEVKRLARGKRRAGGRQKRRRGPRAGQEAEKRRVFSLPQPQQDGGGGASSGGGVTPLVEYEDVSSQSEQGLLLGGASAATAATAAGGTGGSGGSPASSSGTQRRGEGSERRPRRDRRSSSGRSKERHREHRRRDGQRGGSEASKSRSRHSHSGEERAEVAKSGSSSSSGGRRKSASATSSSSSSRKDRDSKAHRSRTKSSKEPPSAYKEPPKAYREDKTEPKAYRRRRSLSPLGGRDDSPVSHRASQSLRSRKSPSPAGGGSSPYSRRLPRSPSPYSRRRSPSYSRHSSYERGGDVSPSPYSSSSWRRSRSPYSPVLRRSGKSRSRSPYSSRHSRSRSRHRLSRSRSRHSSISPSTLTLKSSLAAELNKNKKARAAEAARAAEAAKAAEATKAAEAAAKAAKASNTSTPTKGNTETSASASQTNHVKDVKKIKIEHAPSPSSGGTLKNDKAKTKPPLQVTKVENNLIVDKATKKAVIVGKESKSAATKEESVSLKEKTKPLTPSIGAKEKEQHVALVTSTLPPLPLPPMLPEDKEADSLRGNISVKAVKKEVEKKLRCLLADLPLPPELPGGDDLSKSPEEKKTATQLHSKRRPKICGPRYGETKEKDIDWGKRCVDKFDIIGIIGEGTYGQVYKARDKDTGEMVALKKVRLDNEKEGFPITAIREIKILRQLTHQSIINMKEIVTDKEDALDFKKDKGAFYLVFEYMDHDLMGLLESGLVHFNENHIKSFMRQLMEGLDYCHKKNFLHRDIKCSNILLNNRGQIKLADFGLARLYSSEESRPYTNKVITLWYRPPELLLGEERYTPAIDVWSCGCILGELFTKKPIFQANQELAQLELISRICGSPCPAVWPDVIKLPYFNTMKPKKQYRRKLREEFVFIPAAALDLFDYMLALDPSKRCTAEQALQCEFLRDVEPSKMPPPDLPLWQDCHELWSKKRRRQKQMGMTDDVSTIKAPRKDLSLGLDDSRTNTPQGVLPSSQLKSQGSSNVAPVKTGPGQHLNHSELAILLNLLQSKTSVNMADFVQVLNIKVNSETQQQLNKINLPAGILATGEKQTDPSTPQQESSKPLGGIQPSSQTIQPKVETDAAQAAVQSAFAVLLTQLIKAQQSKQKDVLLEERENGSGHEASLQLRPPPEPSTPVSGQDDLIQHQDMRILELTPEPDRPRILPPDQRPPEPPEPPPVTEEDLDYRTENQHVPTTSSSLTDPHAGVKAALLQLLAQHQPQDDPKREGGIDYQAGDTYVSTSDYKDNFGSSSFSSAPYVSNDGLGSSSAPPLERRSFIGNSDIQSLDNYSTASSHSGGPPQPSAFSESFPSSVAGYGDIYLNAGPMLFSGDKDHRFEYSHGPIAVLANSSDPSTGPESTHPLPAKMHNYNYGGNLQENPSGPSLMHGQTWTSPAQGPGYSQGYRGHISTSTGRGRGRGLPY

RET = RET (Homo sapiens, UniProt P07949)
ZAP70 = ZAP70 (Homo sapiens, UniProt P43403)
Chain of ZAP70 (P43403 whole entry): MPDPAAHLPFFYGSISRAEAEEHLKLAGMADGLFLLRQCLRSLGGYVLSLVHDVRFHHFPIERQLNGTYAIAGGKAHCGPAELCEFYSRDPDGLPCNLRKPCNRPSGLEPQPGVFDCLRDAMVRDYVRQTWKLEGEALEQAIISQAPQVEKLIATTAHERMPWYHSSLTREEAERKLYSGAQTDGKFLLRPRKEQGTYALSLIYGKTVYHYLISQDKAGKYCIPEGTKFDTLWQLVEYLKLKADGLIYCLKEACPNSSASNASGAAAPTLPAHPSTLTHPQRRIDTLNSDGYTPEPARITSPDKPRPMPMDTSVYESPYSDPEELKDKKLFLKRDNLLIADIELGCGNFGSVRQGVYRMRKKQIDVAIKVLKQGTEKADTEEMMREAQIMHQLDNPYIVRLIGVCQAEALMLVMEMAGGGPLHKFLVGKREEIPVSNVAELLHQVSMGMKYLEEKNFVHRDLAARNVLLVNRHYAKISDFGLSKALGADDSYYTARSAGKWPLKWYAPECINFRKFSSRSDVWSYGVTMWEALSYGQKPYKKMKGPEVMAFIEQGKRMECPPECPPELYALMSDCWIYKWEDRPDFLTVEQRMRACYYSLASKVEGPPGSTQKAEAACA

EGFR(T790M) = EGFR(T790M) (Homo sapiens, UniProt P00533, T790M)
TGFBR1 = TGFBR1 (Homo sapiens, UniProt P36897)
NEK10 = NEK10 (Homo sapiens, UniProt Q6ZWH5)
MAP4K3 = MAP4K3 (Homo sapiens, UniProt Q8IVH8)
SRC = SRC (Homo sapiens, UniProt P12931)
BUB1 = BUB1 (Homo sapiens, UniProt O43683)
Chain of BUB1 (O43683 whole entry): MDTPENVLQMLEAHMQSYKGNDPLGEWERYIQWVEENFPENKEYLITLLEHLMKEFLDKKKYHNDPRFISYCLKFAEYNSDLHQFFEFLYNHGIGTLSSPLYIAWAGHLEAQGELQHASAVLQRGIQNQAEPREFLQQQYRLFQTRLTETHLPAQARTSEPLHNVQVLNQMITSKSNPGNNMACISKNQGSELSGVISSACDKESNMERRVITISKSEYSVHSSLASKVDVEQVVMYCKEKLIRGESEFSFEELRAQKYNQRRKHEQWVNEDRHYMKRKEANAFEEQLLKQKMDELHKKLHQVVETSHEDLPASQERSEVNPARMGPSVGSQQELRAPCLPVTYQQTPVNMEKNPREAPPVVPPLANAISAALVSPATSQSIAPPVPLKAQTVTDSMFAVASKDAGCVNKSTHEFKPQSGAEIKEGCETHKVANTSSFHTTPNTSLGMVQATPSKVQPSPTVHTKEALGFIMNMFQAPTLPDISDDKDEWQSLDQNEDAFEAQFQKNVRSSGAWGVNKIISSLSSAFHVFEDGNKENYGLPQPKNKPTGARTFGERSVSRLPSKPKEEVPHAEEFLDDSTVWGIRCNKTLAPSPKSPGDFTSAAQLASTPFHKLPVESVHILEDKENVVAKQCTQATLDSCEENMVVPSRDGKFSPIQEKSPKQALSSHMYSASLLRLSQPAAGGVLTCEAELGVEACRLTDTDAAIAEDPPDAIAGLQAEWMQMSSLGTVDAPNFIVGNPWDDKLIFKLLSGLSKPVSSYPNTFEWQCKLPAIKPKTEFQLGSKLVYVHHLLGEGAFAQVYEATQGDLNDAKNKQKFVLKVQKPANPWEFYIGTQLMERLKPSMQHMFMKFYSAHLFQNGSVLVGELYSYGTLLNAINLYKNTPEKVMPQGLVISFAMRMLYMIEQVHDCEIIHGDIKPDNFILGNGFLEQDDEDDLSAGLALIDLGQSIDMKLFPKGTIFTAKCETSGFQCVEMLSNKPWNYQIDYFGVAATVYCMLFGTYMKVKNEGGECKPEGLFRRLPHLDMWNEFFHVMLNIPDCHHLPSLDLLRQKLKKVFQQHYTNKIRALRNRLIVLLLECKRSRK

MAP3K2 = MAP3K2 (Homo sapiens, UniProt Q9Y2U5)
[4] = target: ABL1(Y253F)-phosphorylated (Homo sapiens, UniProt P00519, Y253F)
ACVR1 = ACVR1 (Homo sapiens, UniProt Q04771)
AMPK-alpha1 = AMPK-alpha1 (Homo sapiens, UniProt Q13131)
MEK6 = MEK6 (Homo sapiens, UniProt P52564)
PRKCH = PRKCH (Homo sapiens, UniProt P24723)
MARK2 = MARK2 (Homo sapiens, UniProt Q7KZI7)
SNARK = SNARK (Homo sapiens, UniProt Q9H093)

Chain of GRK4 (P32298 whole entry): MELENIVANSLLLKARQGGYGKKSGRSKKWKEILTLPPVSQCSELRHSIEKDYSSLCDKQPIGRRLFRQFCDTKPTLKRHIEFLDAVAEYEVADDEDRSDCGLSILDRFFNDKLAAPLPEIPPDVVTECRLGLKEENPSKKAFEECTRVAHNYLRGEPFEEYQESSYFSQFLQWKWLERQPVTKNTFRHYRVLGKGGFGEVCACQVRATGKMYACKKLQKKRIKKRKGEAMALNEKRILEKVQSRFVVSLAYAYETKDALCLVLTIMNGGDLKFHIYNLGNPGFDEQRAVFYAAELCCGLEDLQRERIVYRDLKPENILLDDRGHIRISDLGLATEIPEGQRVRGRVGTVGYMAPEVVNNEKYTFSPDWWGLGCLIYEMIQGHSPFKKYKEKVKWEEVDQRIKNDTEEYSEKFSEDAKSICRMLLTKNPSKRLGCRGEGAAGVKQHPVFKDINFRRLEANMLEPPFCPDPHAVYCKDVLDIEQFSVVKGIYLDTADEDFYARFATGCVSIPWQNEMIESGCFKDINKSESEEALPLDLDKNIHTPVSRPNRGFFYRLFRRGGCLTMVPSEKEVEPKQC

CC(C)COC(=O)c1[nH]c2ccc(F)cc2c1-c1cn(CC2CCN(CCNS(=O)(=O)c3ccc(CC(C)C)cc3)CC2)nn1 [AB668, isobutyl 5-fluoro-3-(1-((1-(2-((4-isobutylphenyl)sulfonamido)ethyl)piperidin-4-yl)methyl)-1H-1,2,3-triazol-4-yl)-1H-indole-2-carboxylate]
remaining activity at 2 µM (CDK7): 98% | remaining activity at 2 µM (ZAK): 100% | remaining activity at 2 µM [1]: 97% | remaining activity at 2 µM (CAMK1D): 96% | remaining activity at 2 µM (GRK4): 98% | remaining activity at 2 µM (PKN2): 85% | remaining activity at 2 µM (CLK2): 98% | remaining activity at 2 µM (PDPK1): 98% | remaining activity at 2 µM (CSF1R): 100% | remaining activity at 2 µM (KIT(V559D)): 98% | remaining activity at 2 µM (WNK2): 87% | remaining activity at 2 µM [2]: 64% | remaining activity at 2 µM [3]: 85% | remaining activity at 2 µM (FGFR1): 81% | remaining activity at 2 µM (EGFR(L747-T751del,Sins)): 86% | remaining activity at 2 µM (PLK3): 93% | remaining activity at 2 µM (FGR): 72% | remaining activity at 2 µM (MAPKAPK2): 92% | remaining activity at 2 µM (TBK1): 87% | remaining activity at 2 µM (PLK4): 94% | remaining activity at 2 µM (ACVR2A): 95% | remaining activity at 2 µM (RIOK3): 97% | remaining activity at 2 µM (PRP4): 95% | remaining activity at 2 µM (CSF1R-autoinhibited): 85% | remaining activity at 2 µM (MAK): 96% | remaining activity at 2 µM (IKK-alpha): 100% | remaining activity at 2 µM (CDC2L5): 98% | remaining activity at 2 µM (RET): 87% | remaining activity at 2 µM (ZAP70): 76% | remaining activity at 2 µM (EGFR(T790M)): 89% | remaining activity at 2 µM (TGFBR1): 84% | remaining activity at 2 µM (NEK10): 80% | remaining activity at 2 µM (MAP4K3): 82% | remaining activity at 2 µM (SRC): 92% | remaining activity at 2 µM (BUB1): 94% | remaining activity at 2 µM (MAP3K2): 93% | remaining activity at 2 µM [4]: 95% | remaining activity at 2 µM (ACVR1): 100% | remaining activity at 2 µM (AMPK-alpha1): 99% | remaining activity at 2 µM (MEK6): 83% | remaining activity at 2 µM (PRKCH): 92% | remaining activity at 2 µM (MARK2): 81% | remaining activity at 2 µM (SNARK): 94%
